Literature values, collected in US20250049595A1, “ZOTAROLIMUS-ROSUVASTATIN ELUTING BIODEGRADABLE STENT” (priority 2023, published 2025).

Settings: targeted by typical daily dose between 5 and 40 mg

CC(C)c1nc(N(C)S(C)(=O)=O)nc(-c2ccc(F)cc2)c1/C=C/[C@@H](O)C[C@@H](O)CC(=O)O [Rosuvastatin]
plasma concentration: 0.5 ng/mL
